# Like-named read-outs stand apart in the source and are kept apart here. Starred links: 1 amine or outer side, 2 acyl side, 3 side chain; linkers in the order of their positions; H or OH if unused. Non-standard residues stand in square brackets, D forms with d. Residues, ends and D or L forms follow the SMILES beside them. X2 = CCCC[C@@H](CN[*:1])C(=O)[*:2]; X1 = CCCC[C@H](CN[*:1])C(=O)[*:2]
# How the values were obtained:
# PTHR1 [1] = biological target: T1, PTHR1 (Homo sapiens, UniProt Q03431); test: PTHR1 activation, cAMP production (GloSensor) in HEK293 cells; assay type: cell-based; parameters: expressed in transfected cells; conditions: for PTHR1 Activation: Derivative EC50/PTH EC50: normalized to EC50 of PTH(1-34)-NH2 ([…]), cAMP production
# T1 sequence (Q03431 27-593): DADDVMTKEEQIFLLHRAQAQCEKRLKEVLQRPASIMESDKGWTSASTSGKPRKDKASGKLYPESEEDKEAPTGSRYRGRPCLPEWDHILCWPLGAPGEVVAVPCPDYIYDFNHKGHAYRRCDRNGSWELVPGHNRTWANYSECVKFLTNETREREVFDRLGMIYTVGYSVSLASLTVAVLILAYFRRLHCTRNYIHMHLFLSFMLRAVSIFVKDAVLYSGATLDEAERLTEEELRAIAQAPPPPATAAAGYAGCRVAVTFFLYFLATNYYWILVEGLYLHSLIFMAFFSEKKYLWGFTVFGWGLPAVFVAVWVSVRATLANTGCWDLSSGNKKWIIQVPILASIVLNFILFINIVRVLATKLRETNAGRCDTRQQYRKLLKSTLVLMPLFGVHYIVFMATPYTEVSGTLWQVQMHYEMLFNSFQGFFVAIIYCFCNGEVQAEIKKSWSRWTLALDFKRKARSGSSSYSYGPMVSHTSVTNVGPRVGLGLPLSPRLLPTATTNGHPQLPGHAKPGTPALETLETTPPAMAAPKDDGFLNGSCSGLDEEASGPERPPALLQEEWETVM
# PTHR2 [2] = biological target: T2, PTHR2 (Homo sapiens, UniProt P49190); test: PTHR2 activation, cAMP production (GloSensor) in HEK293 cells; assay type: cell-based; parameters: expressed in transfected cells; key to PTHR2 Activation: Derivative EC50/PTH EC50: *** denotes poor tolerance of β amino acid for PTHR2 activation; conditions: for PTHR2 Activation: Derivative EC50/PTH EC50: normalized to EC50 of PTH(1-34)-NH2 ([…] printed), cAMP production
# Outline: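 HEK293 cells stably expressing PTHR2; receptor activation read as cAMP production by GloSensor luminescence. Dose-response curves fit with a four-parameter sigmoidal equation; data are mean±s.e.m. of four independent measurements.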
# PTHR1 [3] = biological target: T1, PTHR1; test: Wash-out assay, duration of PTHR1 activation; assay type: cell-based; parameters: expressed in transfected cells; host or cells: cells stably expressing PTHR1
# Source text: (§1) Duration of activation for PTHR1 and PTHR2. To assess the duration of PTHR1 and PTHR2 activation induced by α/β-peptides 14 and 15, the time course of cAMP production by each receptor was examined after stimulation with an agonist and subsequent washing of the cells to remove unbound peptide (wash-out assay). […] During the initial “ligand-on” phase, cells stably expressing PTHR1 or PTHR2 were stimulated with an agonist concentration corresponding to ˜EC80; the medium contained D-luciferin. […] After the addition of fresh medium containing D-luciferin, the luminescence decay is measured. The area under the “ligand-off” curve (AUC) reflects the duration of signaling, which may be related to residence time of the agonist on the receptor but could have other origins at the molecular level.
# PTHR2 [4] = biological target: T2, PTHR2; test: Wash-out assay, duration of PTHR2 activation; assay type: cell-based; parameters: expressed in transfected cells; host or cells: cells stably expressing PTHR2
# Source text: as §1
# PTHR1 and PTHR2 = test: Tolerance pattern of β residues for PTHR1 and PTHR2 activation; assay type: cell-based; parameters: key: “*” denotes potent PTHR1-selective agonism; “#” denotes potent PTHR2-selective agonism; “*#” denotes potent agonism of both PTHR1 and PTHR2; conditions: PTHR1 vs PTHR2 agonism
# Source text: Enhanced selectivity via double α→β replacement.
# PTHR1 [5] = test: β-arr1 | pEC50
# PTHR1 [6] = test: β-arr2 | pEC50
# PTHR1 [7] = test: cAMP | pEC50
# Source text: Table printed on a drawing sheet, FIG. 2
# (§2) Head of the field: cAMP | pEC50
# First copying reader's note: The error (±) stands inside the result cells.
# PTHR1 [8] = test: β-arr1 | pEC50; remark: listed apart in the source
# PTHR1 [9] = test: β-arr2 | pEC50; remark: listed apart in the source
# PTHR1 [10] = test: cAMP | pEC50; remark: listed apart in the source
# Source text: Table printed on a drawing sheet, FIG. 5
# as §2
# The patent's description of the figure: FIG. 5 depicts graphs and a corresponding table reporting the EC50 and Emax of PTHR1 agonists Ligands 8-13 (SEQ. ID. NOS: 8-13) for cAMP signaling and β-arrestin (βarr) recruitment.
# First copying reader's note: Each value cell carries its own ± error; the rows for Ligand 8, 10 and 12 are printed on dark shading.
# Where the first naming reader finds the target: description_of_the_figure: EC50 and Emax of PTHR1 agonists Ligands 8-13 (SEQ. ID. NOS: 8-13) for cAMP signaling and β-arrestin (βarr) recruitment.
# [11] = HEK-293 cells, GloSensor cAMP, read-out: EC50 (nM) of PTHR2 Activation
# [12] = read-out: Normalized ligand-on Emax
# [13] = HEK-293 cells, GloSensor cAMP, read-out: EC50 (nM) of PTHR1 Activation
# T2 sequence (P49190 25-550): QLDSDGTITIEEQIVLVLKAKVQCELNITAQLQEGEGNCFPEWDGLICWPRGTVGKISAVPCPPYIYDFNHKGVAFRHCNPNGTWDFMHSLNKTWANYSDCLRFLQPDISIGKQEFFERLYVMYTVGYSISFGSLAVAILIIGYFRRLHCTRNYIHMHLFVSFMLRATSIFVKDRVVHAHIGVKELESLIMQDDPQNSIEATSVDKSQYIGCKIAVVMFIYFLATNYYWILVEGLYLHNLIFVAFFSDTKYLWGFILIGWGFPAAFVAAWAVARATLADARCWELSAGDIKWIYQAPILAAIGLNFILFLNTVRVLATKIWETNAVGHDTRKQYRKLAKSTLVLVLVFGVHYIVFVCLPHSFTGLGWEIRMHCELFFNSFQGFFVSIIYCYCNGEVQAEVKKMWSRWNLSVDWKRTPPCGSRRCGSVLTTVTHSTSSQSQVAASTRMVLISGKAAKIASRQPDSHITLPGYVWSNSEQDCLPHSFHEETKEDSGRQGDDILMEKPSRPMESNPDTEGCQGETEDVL
compound,measurement,setting,value
"CC[C@H](C)[C@H](NC(=O)[C@H](CCC(=O)O)NC(=O)[C@H](CO)NC(=O)[C@@H](NC(=O)[C@@H](N)CO)C(C)C)C(=O)N[C@@H](CCC(N)=O)C(=O)N[C@@H](CC(C)C)C(=O)N[C@@H](CCSC)C(=O)N[C@@H](Cc1c[nH]cn1)C(=O)N[C@@H](CC(N)=O)C(=O)N[C@@H](CC(C)C)C(=O)NCC(=O)N[C@@H](CCCCN)C(=O)N[C@@H](Cc1c[nH]cn1)C(=O)N[C@@H](CC(C)C)C(=O)N[C@@H](CC(N)=O)C(=O)N[C@@H](CO)C(=O)N[C@@H](CCSC)C(=O)N[C@@H](CCC(=O)O)C(=O)N[C@@H](CCCNC(=N)N)C(=O)N[C@H](C(=O)N[C@@H](CCC(=O)O)C(=O)N[C@@H](Cc1c[nH]c2ccccc12)C(=O)N[C@@H](CC(C)C)C(=O)N[C@@H](CCCNC(=N)N)C(=O)N[C@@H](CCCCN)C(=O)N[C@@H](CCCCN)C(=O)N[C@@H](CC(C)C)C(=O)N[C@@H](CCC(N)=O)C(=O)N[C@@H](CC(=O)O)C(=O)N[C@H](C(=O)N[C@@H](Cc1c[nH]cn1)C(=O)N[C@@H](CC(N)=O)C(=O)N[C@@H](Cc1ccccc1)C(N)=O)C(C)C)C(C)C [PTH(1-34)-NH2, reference compound]",Emax,PTHR1 [1]; HEK293,100%
same,Emax,PTHR2 [2]; HEK293,100%
same,EC50,PTHR2 [2]; [11],0.97 nM
same,EC50,"PTHR2 [2]; Table 5, HEK293 cells stably expressing PTHR2, read-out: PTHR2 EC50",1.07 ± 0.14 nM
same,Normalized ligand-off AUC,"PTHR1 [3]; PTHR1, after washout, PTH(1-34)-NH2 = 100",100
same,Emax,PTHR1 [3]; [12],100%
same,Normalized ligand-off AUC,"PTHR2 [4]; PTHR2, after washout, PTH(1-34)-NH2 = 100",100
same,Emax,PTHR2 [4]; [12],100%
CCCC[C@H](CNC(=O)[C@H](CC(C)C)NC(=O)[C@H](CCC(N)=O)NC(=O)[C@@H](NC(=O)[C@H](CCC(=O)O)NC(=O)[C@H](CO)NC(=O)[C@@H](NC(=O)[C@@H](N)CO)C(C)C)[C@@H](C)CC)C(=O)N[C@@H](Cc1c[nH]cn1)C(=O)N[C@@H](CC(N)=O)C(=O)N[C@@H](CC(C)C)C(=O)NCC(=O)N[C@@H](CCCCN)C(=O)N[C@@H](Cc1c[nH]cn1)C(=O)N[C@@H](CC(C)C)C(=O)N[C@@H](CC(N)=O)C(=O)N[C@@H](CO)C(=O)N[C@@H](CCSC)C(=O)N[C@@H](CCC(=O)O)C(=O)N[C@@H](CCCNC(=N)N)C(=O)N[C@H](C(=O)N[C@@H](CCC(=O)O)C(=O)N[C@@H](Cc1c[nH]c2ccccc12)C(=O)N[C@@H](CC(C)C)C(=O)N[C@@H](CCCNC(=N)N)C(=O)N[C@@H](CCCCN)C(=O)N[C@@H](CCCCN)C(=O)N[C@@H](CC(C)C)C(=O)N[C@@H](CCC(N)=O)C(=O)N[C@@H](CC(=O)O)C(=O)N[C@H](C(=O)N[C@@H](Cc1c[nH]cn1)C(=O)N[C@@H](CC(N)=O)C(=O)N[C@@H](Cc1ccccc1)C(N)=O)C(C)C)C(C)C [SEQ. ID. NO: 29] (H-SVSEIQL[X1]HNLGKHLNSMERVEWLRKKLQDVHNF-NH2; N-terminus assumed),Tolerance Pattern of β AA,PTHR1 and PTHR2,*
same,EC50,PTHR1 [1]; [13],0.4 ± 0.07 nM
same,PTHR1 Activation: Derivative EC50/PTH EC50,PTHR1 [1],1.05
same,EC50,PTHR2 [2]; [11],> 1000 nM
same,PTHR2 Activation: Derivative EC50/PTH EC50,PTHR2 [2],***
CCCC[C@@H](CNC(=O)[C@H](CC(C)C)NC(=O)[C@H](CCC(N)=O)NC(=O)[C@@H](NC(=O)[C@H](CCC(=O)O)NC(=O)[C@H](CO)NC(=O)[C@@H](NC(=O)[C@@H](N)CO)C(C)C)[C@@H](C)CC)C(=O)N[C@@H](Cc1c[nH]cn1)C(=O)N[C@@H](CC(N)=O)C(=O)N[C@@H](CC(C)C)C(=O)NCC(=O)N[C@@H](CCCCN)C(=O)N[C@@H](Cc1c[nH]cn1)C(=O)N[C@@H](CC(C)C)C(=O)N[C@@H](CC(N)=O)C(=O)N[C@@H](CO)C(=O)N[C@@H](CCSC)C(=O)N[C@@H](CCC(=O)O)C(=O)N[C@@H](CCCNC(=N)N)C(=O)N[C@H](C(=O)N[C@@H](CCC(=O)O)C(=O)N[C@@H](Cc1c[nH]c2ccccc12)C(=O)N[C@@H](CC(C)C)C(=O)N[C@@H](CCCNC(=N)N)C(=O)N[C@@H](CCCCN)C(=O)N[C@@H](CCCCN)C(=O)N[C@@H](CC(C)C)C(=O)N[C@@H](CCC(N)=O)C(=O)N[C@@H](CC(=O)O)C(=O)N[C@H](C(=O)N[C@@H](Cc1c[nH]cn1)C(=O)N[C@@H](CC(N)=O)C(=O)N[C@@H](Cc1ccccc1)C(N)=O)C(C)C)C(C)C [SEQ. ID. NO: 37] (H-SVSEIQL[X2]HNLGKHLNSMERVEWLRKKLQDVHNF-NH2; N-terminus assumed),Tolerance Pattern of β AA,PTHR1 and PTHR2,*
same,EC50,PTHR1 [1]; [13],0.38 ± 0.07 nM
same,EC50,"PTHR1 [1]; Table 8, hPTHR1, read-out: PTHR1 EC50",10.3 ± 1.65 nM
same,PTHR1 Activation: Derivative EC50/PTH EC50,PTHR1 [1],1.00
same,EC50,PTHR2 [2]; [11],10.3 ± 1.65 nM
same,PTHR2 Activation: Derivative EC50/PTH EC50,PTHR2 [2],11.85
BA058: also known as abaloparatide,β-arr1 | pEC50,PTHR1 [5],8.38 ± 0.12
same,β-arr2 | pEC50,PTHR1 [6],8.52 ± 0.06
same,cAMP | pEC50,PTHR1 [7],10.05 ± 0.05
"LA-PTH: long-acting PTH analog (AVAEIQLMHQRAKWIQDARRRAFLHKLIAEIHTAEI; Long-acting (LA)-PTH, a parathyroid hormone analog)",β-arr1 | pEC50,PTHR1 [5],8.16 ± 0.06
same,β-arr2 | pEC50,PTHR1 [6],8.20 ± 0.06
same,cAMP | pEC50,PTHR1 [7],9.06 ± 0.06
Ligand 13: PTH(1-34) analogue with replaced residue at position 8 (character image) (SVSEIQLXHNLGKHLNSMERVEWLRKKLQDVHNF; non-natural residue at position 8; MOD_RES (8)..(8) X at position 8 is (S*)-Beta-2-Norleucine),β-arr1 | pEC50,PTHR1 [8],8.03 ± 0.10
same,β-arr2 | pEC50,PTHR1 [9],8.16 ± 0.09
same,cAMP | pEC50,PTHR1 [10],9.44 ± 0.08
SVSEIQL^nLHNLGKHLNSMERVEWLRKKLQDVHNF (SVSEIQLXHNLGKHLNSMERVEWLRKKLQDVHNF; (R)-beta2-Nle at position 8; MOD_RES (8)..(8) X at position 8 is (R)-Beta-2-Norleucine.) [Ligand 11],β-arr1 | pEC50,PTHR1 [8],8.33 ± 0.05
same,β-arr2 | pEC50,PTHR1 [9],8.28 ± 0.02
same,cAMP | pEC50,PTHR1 [10],9.03 ± 0.10

# From patent publication US11780901B2, “Analogues of parathyroid hormone (1-34) that function as agonists of the parathyroid hormone receptor-1 and display modified activity profiles” (Wisconsin Alumni Research Foundation, priority 2013, dated 2023)
